# Counter-ions that a name gives are not always drawn.
# Tested on: spontaneously hypertensive rats
# Experiment: Spontaneously Hypertensive Rat (SHR) test
# Type: in vivo
# Settings: oral dose 30 mg/kg
# From the text: The activity of compounds of formula (I) for the treatment of hypertension may be determined using the Spontaneously Hypertensive Rat (SHR) test as described below.
# In this test, the arterial pressure of adult spontaneously hypertensive rats (Charles River) is monitored directly via an aortic cannula. The SH rats are anesthetized with an inhalation anesthetic (ether). The left carotid artery is isolated and cannulated. The tip of the cannula is advanced to the aorta and the cannula is exteriorized behind the neck at the level of the scapula. Animals are placed in individual cages and allowed to recover from the anesthetic and are kept unrestrained. The arterial cannula is connected to the pressure transducer which is attached to the recorder. The test compounds are administered to at least 3 rats at doses selected in the range of 0.1 to 100 mg/kg of body weight by intraperitoneal (i.p.) or oral (p.o.) routes of administration. The arterial pressure and heart rate are monitored for a minimum of 24 hours. A test compound is considered to be active as an antihypertensive agent if the mean arterial pressure (MAP) indicates a fall of >15 mm of Hg. Each animal serves as its own control.
SMILES,duration of blood pressure reduction [h],heart rate change [beats/min],reduction of hypertensive blood pressure (mean arterial pressure) [mm Hg]
"CC(C)(C)NCC(O)COc1ccccc1C#Cc1ccncc1.O=C(O)/C=C/C(=O)O (stereo not drawn) [Example 1, 1-[(1,1-Dimethylethyl)amino]-3-[2-(4-pyridinylethynyl)phenoxy]-2-propanol (E)-2-Butenedioate]",7.5,-87,-46
"CC(C)(C)NCC(O)COc1ccccc1C#Cc1cccnc1 (stereo not drawn) [Example 2, 1-[(1,1-Dimethylethyl)amino]-3-[2-(3-pyridinylethynyl)phenoxy]-2-propanol Hydrochloride Hydrate (4:4:1)]",10.5,-41,-54

# From US4663334A, “Heteroaromatic acetylenes useful as antihypertensive agents” (McNeilab, Inc., priority 1985, dated 1987)
